Experimental data reported in ChEMBL document CHEMBL1140276, “Synthesis of 4(5)-phenylimidazole-based analogues of sphingosine-1-phosphate and FTY720: discovery of potent S1P1 receptor agonists” (Bioorg Med Chem Lett, 2005).
pEC50: −log10 of the molar value.

How the values were obtained:
[1] = molecular target: T1, Sphingosine 1-phosphate receptor 1 (Homo sapiens, UniProt P21453); experiment: Maximal efficacy against sphingosine-1-phosphate receptor 1 determined by a [c-35S]-GTP binding assay
[2] = molecular target: T2, Sphingosine 1-phosphate receptor 5 (Homo sapiens, UniProt Q9H228); experiment: Maximal efficacy against sphingosine 1-phosphate receptor 5 determined by a [c-35S]-GTP binding assay
T2 sequence (Q9H228 whole entry): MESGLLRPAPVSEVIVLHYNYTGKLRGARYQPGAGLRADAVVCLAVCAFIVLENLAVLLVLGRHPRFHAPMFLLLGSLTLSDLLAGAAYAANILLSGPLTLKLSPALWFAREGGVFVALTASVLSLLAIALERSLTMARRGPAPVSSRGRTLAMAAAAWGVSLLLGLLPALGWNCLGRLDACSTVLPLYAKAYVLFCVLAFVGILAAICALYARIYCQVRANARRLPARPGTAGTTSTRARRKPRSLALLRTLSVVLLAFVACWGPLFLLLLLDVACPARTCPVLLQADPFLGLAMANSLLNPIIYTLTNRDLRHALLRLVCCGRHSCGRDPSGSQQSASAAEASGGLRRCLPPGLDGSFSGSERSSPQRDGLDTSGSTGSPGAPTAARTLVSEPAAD

[3] = molecular target: T3, Sphingosine 1-phosphate receptor 3 (Homo sapiens, UniProt Q99500); experiment: Effective concentration against sphingosine 1-phosphate receptor 3 determined by a [c-35S]-GTP binding assay
T3 sequence (Q99500 whole entry): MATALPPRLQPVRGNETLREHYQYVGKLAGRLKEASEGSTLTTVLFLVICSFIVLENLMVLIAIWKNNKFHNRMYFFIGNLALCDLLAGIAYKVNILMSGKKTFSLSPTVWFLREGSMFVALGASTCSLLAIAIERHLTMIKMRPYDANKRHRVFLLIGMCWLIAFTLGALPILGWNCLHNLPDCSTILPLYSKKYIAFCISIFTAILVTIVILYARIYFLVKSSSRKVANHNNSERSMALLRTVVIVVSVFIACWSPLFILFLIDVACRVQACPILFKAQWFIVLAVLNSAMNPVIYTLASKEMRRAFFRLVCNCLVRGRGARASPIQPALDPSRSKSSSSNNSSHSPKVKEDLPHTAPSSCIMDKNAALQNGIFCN

[4] = molecular target: T2, Sphingosine 1-phosphate receptor 5; experiment: Effective concentration against sphingosine 1-phosphate receptor 5 determined by a [c-35S]-GTP binding assay
[5] = molecular target: T4, Sphingosine 1-phosphate receptor 4 (Homo sapiens) (UniProt O95977); experiment: Maximal efficacy against sphingosine 1-phosphate receptor 4 determined by a [c-35S]-GTP binding assay
T4 sequence (whole entry): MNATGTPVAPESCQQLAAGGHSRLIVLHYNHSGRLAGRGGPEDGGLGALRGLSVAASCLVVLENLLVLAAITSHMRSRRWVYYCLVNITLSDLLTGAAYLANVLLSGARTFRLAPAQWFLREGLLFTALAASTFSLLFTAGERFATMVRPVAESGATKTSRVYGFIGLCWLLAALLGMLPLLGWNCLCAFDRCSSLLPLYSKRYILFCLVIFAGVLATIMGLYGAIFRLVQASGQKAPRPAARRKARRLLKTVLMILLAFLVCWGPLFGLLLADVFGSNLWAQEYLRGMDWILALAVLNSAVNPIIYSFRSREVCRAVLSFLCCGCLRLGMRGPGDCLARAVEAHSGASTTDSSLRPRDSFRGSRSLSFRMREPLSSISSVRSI

[6] = molecular target: T3, Sphingosine 1-phosphate receptor 3; experiment: Maximal efficacy against sphingosine 1-phosphate receptor 3 determined by a [c-35S]-GTP binding assay
[7] = molecular target: T5, Sphingosine 1-phosphate receptor 4 (Homo sapiens, UniProt O95977); experiment: Effective concentration against sphingosine 1-phosphate receptor 4 determined by a [c-35S]-GTP binding assay
T5 sequence (O95977 whole entry): T4 sequence (whole entry)

[8] = molecular target: T6, Sphingosine 1-phosphate receptor 2 (Homo sapiens, UniProt O95136); experiment: Maximal efficacy against sphingosine 1-phosphate receptor 2 determined by a [c-35S]-GTP binding assay
T6 sequence (O95136 whole entry): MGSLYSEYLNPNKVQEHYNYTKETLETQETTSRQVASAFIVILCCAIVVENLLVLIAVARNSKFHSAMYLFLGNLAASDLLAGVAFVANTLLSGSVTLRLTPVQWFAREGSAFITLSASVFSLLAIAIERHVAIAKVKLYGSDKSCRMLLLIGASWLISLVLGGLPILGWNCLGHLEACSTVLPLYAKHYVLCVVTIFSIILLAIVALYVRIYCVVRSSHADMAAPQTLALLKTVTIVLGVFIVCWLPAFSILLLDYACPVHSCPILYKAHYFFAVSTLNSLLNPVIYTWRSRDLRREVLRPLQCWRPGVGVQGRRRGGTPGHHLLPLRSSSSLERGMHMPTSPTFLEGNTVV

[9] = molecular target: T1, Sphingosine 1-phosphate receptor 1; experiment: Effective concentration against sphingosine-1-phosphate receptor 1 determined by a [c-35S]-GTP binding assay
[10] = molecular target: T3, Sphingosine 1-phosphate receptor 3; experiment: Maximal efficacy against sphingosine 1-phosphate receptor 3 determined by a [c-35S]-GTP binding assay; no agonist activity
[11] = molecular target: T4, Sphingosine 1-phosphate receptor 4 (Homo sapiens); experiment: Maximal efficacy against sphingosine 1-phosphate receptor 4 determined by a [c-35S]-GTP binding assay; no agonist activity
[12] = molecular target: T6, Sphingosine 1-phosphate receptor 2; experiment: Maximal efficacy against sphingosine 1-phosphate receptor 2 determined by a [c-35S]-GTP binding assay; no agonist activity
[13] = molecular target: T6, Sphingosine 1-phosphate receptor 2; experiment: Effective concentration against sphingosine 1-phosphate receptor 2 determined by a [c-35S]-GTP binding assay
[14] = molecular target: T6, Sphingosine 1-phosphate receptor 2; experiment: Maximal efficacy against sphingosine 1-phosphate receptor 2 determined by a [c-35S]-GTP binding assay;

T1 sequence (P21453 whole entry): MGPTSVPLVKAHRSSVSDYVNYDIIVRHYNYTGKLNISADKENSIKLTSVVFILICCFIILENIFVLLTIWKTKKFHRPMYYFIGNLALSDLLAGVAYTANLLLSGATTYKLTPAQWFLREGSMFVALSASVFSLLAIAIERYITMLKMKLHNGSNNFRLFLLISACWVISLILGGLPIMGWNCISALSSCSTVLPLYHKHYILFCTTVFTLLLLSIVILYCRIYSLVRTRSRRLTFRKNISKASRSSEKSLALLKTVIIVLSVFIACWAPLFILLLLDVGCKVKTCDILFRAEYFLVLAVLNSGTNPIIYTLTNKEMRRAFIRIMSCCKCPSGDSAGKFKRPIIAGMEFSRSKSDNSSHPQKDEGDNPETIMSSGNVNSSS

Row | SMILES | Emax [1] | Emax [2] | pEC50 [3] | pEC50 [4] | Emax [5] | Emax [6] | pEC50 [7] | Emax [8] | pEC50 [9] | Emax [10] | Emax [11] | Emax [12] | pEC50 [13] | Emax [14]
1 | CCCCCCCCc1ccc(-c2c[nH]c(C(C)(N)COP(=O)(O)O)n2)cc1 (configuration not stated) | 0.88 | 0.72 | 6.11 | 7.59 | 0.94 | 0.53 | 7.04 | 0 | 8.33 | – | – | – | – | –
2 | CCCCCCCCc1ccc(-c2c[nH]c(C(C)(N)CO)n2)cc1 (configuration not stated) | 0 | 0 | – | – | – | – | – | – | – | 0 | 0 | 0 | – | –
3 | CCCCCCCCc1ccc(-c2c[nH]c([C@H](N)CO)n2)cc1 | 0.98 | 0.83 | 5.57 | 6.07 | 0.9 | 0.38 | 5.13 | 0 | 5.57 | – | – | – | – | –
4 | CCCCCCCCc1ccc(CCC(N)(CO)COP(=O)(O)O)cc1 (configuration not stated) | 1 | 0.56 | – | – | 0.78 | 0.5 | 7.39 | 0 | – | – | – | – | – | –
5 | CCCCCCCCCCCCC/C=C/[C@@H](O)[C@@H](N)COP(=O)(O)O | 1 | 1 | – | – | 1 | 1 | – | 1 | – | – | – | – | – | –
6 | CCCCCCCCc1ccc(-c2c[nH]c(C(C)(N)COP(O)(O)=S)n2)cc1 (configuration not stated) | 0.87 | 0.6 | 5.80 | 7.29 | 0.68 | 0.44 | 6.77 | 0 | 8.01 | – | – | – | – | –
7 | CCCCCCCCc1ccc(-c2c[nH]c([C@@H](N)COP(O)(O)=S)n2)cc1 | 0.67 | 0.82 | 6.16 | 7.54 | 0.82 | 0.45 | 6.72 | 0 | 8.19 | – | – | – | – | –
8 | CCCCCCCCc1ccc(-c2c[nH]c(C(N)(CO)COP(=O)(O)O)n2)cc1 (configuration not stated) | 0.91 | 0.66 | 6.20 | 7.77 | 0.87 | 0.21 | 6.80 | 0.95 | 8.10 | – | – | – | 7.74 | –
9 | CCCCCCCCc1ccc(-c2c[nH]c(C(N)(CO)CO)n2)cc1 | 0.66 | 0.48 | – | 5.17 | 0.79 | 0 | 6.18 | 0 | 5.29 | – | – | – | – | –
10 | CCCCCCCCc1ccc(-c2c[nH]c(C(N)(CO)COP(O)(O)=S)n2)cc1 (configuration not stated) | 0.66 | 0.56 | 6.10 | 7.80 | 0.72 | 0.68 | 7.05 | 0 | 6.82 | – | – | – | – | –
11 | CCCCCCCCc1ccc(-c2c[nH]c([C@H](N)COP(=O)(O)O)n2)cc1 | 0.75 | 0.73 | 5.77 | 7.43 | 1 | 0.56 | 6.40 | 0 | 8.15 | – | – | – | – | –
12 | CCCCCCCCc1ccc(-c2c[nH]c([C@@H](N)COP(=O)(O)O)n2)cc1 | 0.69 | 0.69 | 6.48 | 7.92 | 0.79 | 0.42 | 6.82 | – | 8.40 | – | – | – | – | 0
